# Data: PMC7248098, “Biochemical characterization and inhibition of the alternative oxidase enzyme from the fungal phytopathogen Moniliophthora perniciosa” (Communications Biology, 2020)
# Several values for one entry are separate records, joined by “and”; a condition that tells them apart may be missing. Equal values may be shown once.
# Legend:
# Assay type in all cases: biochemical
# membrane-bound rMpAOX [1] = molecular target: T1, membrane-bound rMpAOX (Moniliophthora perniciosa, UniProt A8QJP8); test: Membrane-bound rMpAOX activity with putative activators (O2 uptake, oxygraph; dose-response); settings: for Fold-change in membrane-bound rMpAOX O2 uptake: 1 mM each, single independent measurements (Fig1a); for Increase of membrane-bound rMpAOX oxygen uptake: 1 mM activator; for EC50: membrane-bound rMpAOX, 4-parameter sigmoid fit, read-out: EC50 of rMpAOX activation;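 on Fractional velocity, %: 100% is the maximal rate reached in the activator titration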
# Method: (§1) E. coli membrane preparation was performed as described with minor modifications. […] The cells were disrupted using two passes at […] through a pre-cooled Constant cell disruption system (Constant Systems Ltd). The lysate was centrifuged for 15 min at 16,000 rcf, and the pelleted unbroken cells and large cell debris were discarded. The supernatant was centrifuged for 90 min at 200,000 rcf to collect the fragmented membranes.
# (§2) Respiration rates were recorded before and after the addition of putative AOX activators, such as 5′-ADP, 5′-AMP, 5′-GDP, 5′-GMP, glyoxylate, oxaloacetate, pyruvate or succinate (1 mM each unless stated otherwise). […] Data were acquired with the Multiskan FC Microplate Photometer (ThermoFisher). […] Absorbance readings were taken periodically and a blank reactions (substrate without enzyme) were included in every assay and were used to determine and subtract the autoxidation rate (background). Proteoliposomes were assayed as described for the E. coli membrane fraction except that no KCN was included and 0.5 µL of the prep (~50 ng rMpAOX) were added into the reaction. When tested, inhibitors were preincubated with the enzyme in reaction buffer for 2–5 min before starting the reaction by the addition of substrate. The path length (i.e., the height of the reaction medium inside the well) was calculated based on the reaction volume and the well cross-section area informed by the supplier. GraphPad Prism 7.0 (GraphPad Software Inc.) was used for function fitting.
# purified rMpAOX = purified rMpAOX (Moniliophthora perniciosa, UniProt A8QJP8); test: Purified (detergent-solubilised) rMpAOX, Q1H2 oxidation; settings: for Activity: [Q1H2]
# Method: The E. coli membrane fraction was resuspended with 50 mM Tris-HCl pH 7.5, 20% glycerol, 200 mM MgSO4 and 1% Fos-Choline-12 (FC-12) instead of MOPS buffer. The sample was left under gentle rocking for 1 h at 4 °C, after which it was centrifuged at 200,000 rcf for 30 min. […] T. Elthon, Nebraska, USA. Protein content was estimated through the Bradford method[63] and bovine serum albumin as standard.
# as §2
# membrane-bound rMpAOX [2] = molecular target: T1, membrane-bound rMpAOX; test: Dose-response assay of inhibitors with membrane-bound, GMP-activated rMpAOX (NADH oxidation)
# Method: as §1, §2
# [3] = molecular target: rMpAOX incorporated into proteoliposomes (Moniliophthora perniciosa, UniProt A8QJP8); test: rMpAOX incorporated into proteoliposomes with Q10 and NDH-2 (NADH oxidation)
# Method: Proteoliposomes (PL) were prepared as previously described[44],[45], except that NDH-2 was used instead of complex I and 0.5% DDM was used instead of OG. […] For kinetic studies, PLs were prepared with 50 µg rMpAOX and no NDH-2—in this case, pure NDH-2 was added directly into the enzymatic reaction mixture at a saturating concentration. Briefly, lipids and Q10 stocks in chloroform were mixed in a glass vial and the chloroform dried under a nitrogen stream. The lipids were hydrated and extruded through a 100 nm NanoSizer MINI Liposome Extruder (T&T Scientific) followed by the addition of protein. After treatment with the Bio-Beads SM-2 Resin (Bio-Rad), proteolipososmes were harvested by ultracentrifugation and resuspended in 150 µL of buffer. Enzymatic assays were performed on the same day.
# as §2
# [4] = substrate ubiquinol-1, 0.0125% C12E8, 100 ng rMpAOX
# [5] = substrate ubiquinol-10 in proteoliposomes, ~50 ng rMpAOX, 300 µM NADH
# Chain of rMpAOX incorporated into proteoliposomes (A8QJP8 entry or part of it): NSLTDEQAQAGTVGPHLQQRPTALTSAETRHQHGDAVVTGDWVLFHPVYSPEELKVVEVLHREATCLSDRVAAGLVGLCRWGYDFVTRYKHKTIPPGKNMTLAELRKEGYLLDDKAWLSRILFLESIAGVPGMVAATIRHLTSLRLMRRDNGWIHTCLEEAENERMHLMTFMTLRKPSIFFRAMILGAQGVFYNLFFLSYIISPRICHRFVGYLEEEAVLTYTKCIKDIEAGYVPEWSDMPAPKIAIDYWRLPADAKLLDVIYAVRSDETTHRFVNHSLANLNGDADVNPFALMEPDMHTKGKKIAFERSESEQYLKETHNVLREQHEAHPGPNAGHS
# T1 sequence (A8QJP8 entry or part of it): as above
# Chain of purified rMpAOX (A8QJP8 entry or part of it): as above
structure (smiles),measurement,setting,value
"O=CC(=O)O [GLYOX, glyoxylate]",Fold-change in membrane-bound rMpAOX O2 uptake,membrane-bound rMpAOX [1],0.6271 and 0.9309 and 0.7633
"Nc1ncnc2c1ncn2[C@@H]1O[C@H](COP(=O)(O)OP(=O)(O)O)[C@@H](O)[C@H]1O [ADP, 5′-ADP]",Increase of membrane-bound rMpAOX oxygen uptake,membrane-bound rMpAOX [1],4.5 times
same,Fold-change in membrane-bound rMpAOX O2 uptake,membrane-bound rMpAOX [1],5 and 3.654 and 4.737
same,"Fractional velocity, %",membrane-bound rMpAOX [1]; [activator] 0.025 mM (Fig1b),29.9% and 27.8%
same,"Fractional velocity, %",membrane-bound rMpAOX [1]; [activator] 0.075 mM (Fig1b),31.9% and 29.4%
same,"Fractional velocity, %",membrane-bound rMpAOX [1]; [activator] 0.175 mM (Fig1b),33.7% and 32.1%
same,"Fractional velocity, %",membrane-bound rMpAOX [1]; [activator] 0.375 mM (Fig1b),36.2% and 33.2%
same,"Fractional velocity, %",membrane-bound rMpAOX [1]; [activator] 0.625 mM (Fig1b),46.5% and 35.2%
same,"Fractional velocity, %",membrane-bound rMpAOX [1]; [activator] 1.625 mM (Fig1b),64.4% and 58.2%
same,"Fractional velocity, %",membrane-bound rMpAOX [1]; [activator] 3.625 mM (Fig1b),97.7% and 79.7%
same,"Fractional velocity, %",membrane-bound rMpAOX [1]; [activator] 6.125 mM (Fig1b),128.8% and 99.5%
same,EC50,membrane-bound rMpAOX [1],~6500 µM
"Nc1ncnc2c1ncn2[C@@H]1O[C@H](COP(=O)(O)O)[C@@H](O)[C@H]1O [AMP, 5′-AMP]",Increase of membrane-bound rMpAOX oxygen uptake,membrane-bound rMpAOX [1],8.1 times
same,Fold-change in membrane-bound rMpAOX O2 uptake,membrane-bound rMpAOX [1],7.569 and 7.49 and 9.2495
same,"Fractional velocity, %",membrane-bound rMpAOX [1]; [activator] 0.025 mM (Fig1b),22.2% and 18.4%
same,"Fractional velocity, %",membrane-bound rMpAOX [1]; [activator] 0.075 mM (Fig1b),33.8% and 27.9%
same,"Fractional velocity, %",membrane-bound rMpAOX [1]; [activator] 0.175 mM (Fig1b),53.8% and 45.3%
same,"Fractional velocity, %",membrane-bound rMpAOX [1]; [activator] 0.375 mM (Fig1b),81.6% and 66.1%
same,"Fractional velocity, %",membrane-bound rMpAOX [1]; [activator] 0.625 mM (Fig1b),102% and 87.9%
same,"Fractional velocity, %",membrane-bound rMpAOX [1]; [activator] 1.125 mM (Fig1b),134.8% and 120.3%
same,"Fractional velocity, %",membrane-bound rMpAOX [1]; [activator] 2.125 mM (Fig1b),172.4% and 157.6%
same,"Fractional velocity, %",membrane-bound rMpAOX [1]; [activator] 4.125 mM (Fig1b),201.8% and 188.2%
same,"Fractional velocity, %",membrane-bound rMpAOX [1]; [activator] 6.625 mM (Fig1b),199.8%
same,EC50,membrane-bound rMpAOX [1],918 µM and 910 µM
"COc1c(O)c(C)c(CC=C(C)C)c(O)c1OC [Q1H2, ubiquinol-1]",Oxidation rate,purified rMpAOX; 180 µM Q1H2,0.36 µmol/min/mg
same,Activity,"purified rMpAOX; M 4.29 (Fig3c, mean)",25.2546 nmol/min/mg
same,Activity,"purified rMpAOX; M 6.87 (Fig3c, mean)",30.5181 nmol/min/mg
same,Activity,"purified rMpAOX; M 10.99 (Fig3c, mean)",60.7997 nmol/min/mg
same,Activity,"purified rMpAOX; M 17.58 (Fig3c, mean)",87.5414 nmol/min/mg
same,Activity,"purified rMpAOX; M 28.12 (Fig3c, mean)",145.463 nmol/min/mg
same,Activity,"purified rMpAOX; M 45 (Fig3c, mean)",202.371 nmol/min/mg
same,Activity,"purified rMpAOX; M 71.99 (Fig3c, mean)",274.627 nmol/min/mg
same,Activity,"purified rMpAOX; M 115.19 (Fig3c, mean)",327.356 nmol/min/mg
same,Activity,"purified rMpAOX; M 184.3 (Fig3c, mean)",355.622 nmol/min/mg
same,Km,purified rMpAOX; [4],68.5 µM
same,VMax,purified rMpAOX; [4],504.1 nmol Q1 min^−1 mg^−1 and 504.1 ± 28.7 nmol Q1 min^−1 mg^−1
"CC(C)=CCc1c(O)c(Cl)c(C)c(C=O)c1O [CD, colletochlorin D]","Fractional velocity, %","membrane-bound rMpAOX [2]; log[I], M -5.60206 (Fig2b), 2.5 µM",6.725% and 4.7683% and 12.1201%
same,"Fractional velocity, %","membrane-bound rMpAOX [2]; log[I], M -6.60206 (Fig2b), 0.25 µM",26.8171% and 38.1389%
same,activity at 0.25 µM,"membrane-bound rMpAOX [2]; log[I], M -6.60206 (Fig2b), read-out: Fractional velocity, %",28%
same,"Fractional velocity, %","membrane-bound rMpAOX [2]; log[I], M -7.60206 (Fig2b), 0.025 µM",83.3186% and 82.5195%
same,activity at 0.025 µM,"membrane-bound rMpAOX [2]; log[I], M -7.60206 (Fig2b), read-out: Fractional velocity, %",81.9%
same,"Fractional velocity, %","membrane-bound rMpAOX [2]; log[I], M -8.60206 (Fig2b), 0.0025 µM",98.2807% and 91.2399%
same,activity at 0.0025 µM,"membrane-bound rMpAOX [2]; log[I], M -8.60206 (Fig2b), read-out: Fractional velocity, %",95.8%
same,"Fractional velocity, %","membrane-bound rMpAOX [2]; log[I], M -9.60206 (Fig2b), 0.00025 µM",94.0253% and 92.2465%
same,activity at 0.00025 µM,"membrane-bound rMpAOX [2]; log[I], M -9.60206 (Fig2b), read-out: Fractional velocity, %",98%
same,"Fractional velocity, %","membrane-bound rMpAOX [2]; log[I], M -10.6021 (Fig2b), 25 pM",93.9344% and 89.9529%
same,activity at 25 pM,"membrane-bound rMpAOX [2]; log[I], M -10.6021 (Fig2b), read-out: Fractional velocity, %",94.5%
same,IC50,"membrane-bound rMpAOX [2]; membrane-bound, GMP-activated rMpAOX, read-out: IC50",0.115 µM
"COc1c(O)c(C)c(C/C=C(\C)CC/C=C(\C)CC/C=C(\C)CC/C=C(\C)CC/C=C(\C)CC/C=C(\C)CC/C=C(\C)CC/C=C(\C)CC/C=C(\C)CCC=C(C)C)c(O)c1OC [Q10H2, ubiquinol-10]",rMpAOX catalytic rate,"[3]; 180 µM Q10H2 in the phospholipid membrane, calculated from KM and VMax",9.3 µmol/min/mg
same,Km,[3]; [5],960 ± 760 µM
same,VMax,[3]; [5],59.4 ± 6.6 µmol Q10 min^−1 mg^−1
"O=C(O)CCC(=O)O [SUCC, succinate]",Fold-change in membrane-bound rMpAOX O2 uptake,membrane-bound rMpAOX [1],1.198 and 0.7995 and 1.017
